Species on record: Rattus norvegicus
Experiment: Open TG-GATES - Regimen: Single
Assay type: toxicity, organism-based, Sprague-Dawley
Design: regimen Single, gender Male, age 6 weeks
Conditions: in vivo, po, 100 mg/kg, route gavage, dose level High; for APTT / Bas / Eos / Fbg / Hb / Ht / Lym / MCH / MCHC / MCV / Mono / Neu / PT / Plat / RBC / Ret / WBC: tissue Blood; for KIDNEY_L / KIDNEY_R / KIDNEY_TOTAL: tissue Kidney; for LIVER: tissue Liver; for A/G / ALP / ALT / AST / BUN / CRE / Ca / Cl / DBIL / GLC / IP / K / LDH / Na / PL / RALB / TBIL / TC / TG / TP / gamma-GTP: tissue Plasma

CCN(CC)N=O [N-NITROSODIETHYLAMINE]
TERMINAL_BW (3 h): 221.2 g | APTT (3 h): 19.4 s | Bas (3 h): 0% | Eos (3 h): 1% | Fbg (3 h): 208.2 mg/dL | Hb (3 h): 13.2 g/dL | Ht (3 h): 38.5% | Lym (3 h): 77.2% | MCH (3 h): 21.5 pg | MCHC (3 h): 34.2% | MCV (3 h): 62.7 fL | Mono (3 h): 1.4% | Neu (3 h): 19.2% | PT (3 h): 12 s | Plat (3 h): 113.8 x10_4/uL | RBC (3 h): 613.8 x10_4/ul | Ret (3 h): 7.2% | WBC (3 h): 60.2 x10_2/uL | KIDNEY_L (3 h): 1 g | KIDNEY_R (3 h): 1 g | KIDNEY_TOTAL (3 h): 2 g | LIVER (3 h): 9 g | A/G (3 h): 1.7 | ALP (3 h): 781 IU/L | ALT (3 h): 39.6 IU/L | AST (3 h): 73.6 IU/L | BUN (3 h): 9.8 mg/dL | CRE (3 h): 0.4 mg/dL | Ca (3 h): 10.2 mg/dL | Cl (3 h): 102.2 meq/L | DBIL (3 h): 0.056 mg/dL | GLC (3 h): 191 mg/dL | IP (3 h): 8.5 mg/dL | K (3 h): 3.5 meq/L | LDH (3 h): 162 IU/L | Na (3 h): 140.8 meq/L | PL (3 h): 124.8 mg/dL | RALB (3 h): 3.4 g/dL | TBIL (3 h): 0.1 mg/dL | TC (3 h): 85 mg/dL | TG (3 h): 24.2 mg/dL | TP (3 h): 5.5 g/dL | gamma-GTP (3 h): 1.2 IU/L | TERMINAL_BW (6 h): 218 g | APTT (6 h): 18.8 s | Bas (6 h): 0.4% | Eos (6 h): 0.8% | Fbg (6 h): 214.6 mg/dL | Hb (6 h): 13.2 g/dL | Ht (6 h): 38.2% | Lym (6 h): 80.2% | MCH (6 h): 21.2 pg | MCHC (6 h): 34.6% | MCV (6 h): 61.4 fL | Mono (6 h): 2% | Neu (6 h): 16% | PT (6 h): 12.7 s | Plat (6 h): 142.5 x10_4/uL | RBC (6 h): 623 x10_4/ul | Ret (6 h): 6.6% | WBC (6 h): 83.6 x10_2/uL | KIDNEY_L (6 h): 1 g | KIDNEY_R (6 h): 1 g | KIDNEY_TOTAL (6 h): 2 g | LIVER (6 h): 9.8 g | A/G (6 h): 1.6 | ALP (6 h): 784.2 IU/L | ALT (6 h): 38.2 IU/L | AST (6 h): 73.4 IU/L | BUN (6 h): 12 mg/dL | CRE (6 h): 0.4 mg/dL | Ca (6 h): 10.2 mg/dL | Cl (6 h): 103.4 meq/L | DBIL (6 h): 0.068 mg/dL | GLC (6 h): 192.8 mg/dL | IP (6 h): 8.3 mg/dL | K (6 h): 3.5 meq/L | LDH (6 h): 207.8 IU/L | Na (6 h): 140.4 meq/L | PL (6 h): 103.6 mg/dL | RALB (6 h): 3.4 g/dL | TBIL (6 h): 0.1 mg/dL | TC (6 h): 68.8 mg/dL | TG (6 h): 24 mg/dL | TP (6 h): 5.5 g/dL | gamma-GTP (6 h): 1.4 IU/L | TERMINAL_BW (9 h): 225.6 g | APTT (9 h): 19.6 s | Bas (9 h): 0.6% | Eos (9 h): 1% | Fbg (9 h): 226.6 mg/dL | Hb (9 h): 13.7 g/dL | Ht (9 h): 39.4% | Lym (9 h): 71.6% | MCH (9 h): 21.4 pg | MCHC (9 h): 34.9% | MCV (9 h): 61.4 fL | Mono (9 h): 5% | Neu (9 h): 20.4% | PT (9 h): 13.8 s | Plat (9 h): 122.7 x10_4/uL | RBC (9 h): 642 x10_4/ul | Ret (9 h): 6.9% | WBC (9 h): 78.5 x10_2/uL | KIDNEY_L (9 h): 1 g | KIDNEY_R (9 h): 1 g | KIDNEY_TOTAL (9 h): 2 g | LIVER (9 h): 9.7 g | A/G (9 h): 1.6 | ALP (9 h): 795 IU/L | ALT (9 h): 35.6 IU/L | AST (9 h): 87.8 IU/L | BUN (9 h): 14.2 mg/dL | CRE (9 h): 0.4 mg/dL | Ca (9 h): 10.3 mg/dL | Cl (9 h): 103.2 meq/L | DBIL (9 h): 0.064 mg/dL | GLC (9 h): 194.4 mg/dL | IP (9 h): 8.2 mg/dL | K (9 h): 3.7 meq/L | LDH (9 h): 267.2 IU/L | Na (9 h): 141.6 meq/L | PL (9 h): 110.4 mg/dL | RALB (9 h): 3.4 g/dL | TBIL (9 h): 0.1 mg/dL | TC (9 h): 73.4 mg/dL | TG (9 h): 28.2 mg/dL | TP (9 h): 5.5 g/dL | gamma-GTP (9 h): 1.6 IU/L | TERMINAL_BW (24 h): 216.1 g | APTT (24 h): 19 s | Bas (24 h): 0.8% | Eos (24 h): 1.2% | Fbg (24 h): 225.6 mg/dL | Hb (24 h): 15.1 g/dL | Ht (24 h): 44.4% | Lym (24 h): 72.4% | MCH (24 h): 21 pg | MCHC (24 h): 34% | MCV (24 h): 61.7 fL | Mono (24 h): 6% | Neu (24 h): 17.8% | PT (24 h): 17 s | Plat (24 h): 130.3 x10_4/uL | RBC (24 h): 720.2 x10_4/ul | Ret (24 h): 6.5% | WBC (24 h): 83.1 x10_2/uL | KIDNEY_L (24 h): 1 g | KIDNEY_R (24 h): 1 g | KIDNEY_TOTAL (24 h): 2 g | LIVER (24 h): 8.2 g | A/G (24 h): 1.7 | ALP (24 h): 955.6 IU/L | ALT (24 h): 56.2 IU/L | AST (24 h): 160 IU/L | BUN (24 h): 13.4 mg/dL | CRE (24 h): 0.4 mg/dL | Ca (24 h): 10.4 mg/dL | Cl (24 h): 104.2 meq/L | DBIL (24 h): 0.1 mg/dL | GLC (24 h): 179.6 mg/dL | IP (24 h): 8.4 mg/dL | K (24 h): 4.1 meq/L | LDH (24 h): 348.8 IU/L | Na (24 h): 140.6 meq/L | PL (24 h): 112.2 mg/dL | RALB (24 h): 3.3 g/dL | TBIL (24 h): 0.2 mg/dL | TC (24 h): 65.2 mg/dL | TG (24 h): 25.6 mg/dL | TP (24 h): 5.3 g/dL | gamma-GTP (24 h): 1.8 IU/L

— ChEMBL document CHEMBL3885861, “Open TG-GATES”
